Results on 85 compounds are retold here after a melting point compilation (Tetko et al.; mined from patent text by program, amines drawn as free bases though some values may be those of a salt).

For the compound `O=C(O)c1cc(Cl)c(Cl)c(-c2ccc(Cl)cc2)n1`, the melting point (usually the temperature, or range, at which the solid turns liquid) is 229 °C. As to `Oc1ccc(Nc2ncc3ncc(-c4cccc(O)c4)cc3n2)cc1`, the melting point is more than 268 °C. With `Fc1ccc(OCCCCN2CCC(NC3=Nc4ccccc4CS3)CC2)cc1`, the melting point amounted to 133 °C. As for `COc1ccc(CS(=O)(=O)CC(=O)O)cc1[N+](=O)[O-]`, the figure is 96 to 98 °C. The result for `CCC(C)P(=S)(NP(=S)(C(C)CC)C(C)CC)C(C)CC` (stereo not given) reads 110 to 114 °C; that for `C/C(=C(\C#N)C(=S)/N=C/N(C)C)N1CCCN(c2ccc(F)c(C)c2)CC1`, 148 to 150 °C.

The compound `Cc1ccc2c(c1)C(=O)N1CCN=C1N2N1CCOCC1` showed a melting point of 227 to 228 °C. `Cc1cc(Nc2ccnc(Nc3ccc(S(=O)(=O)N(CCN4CCCC4)C4CCN(C)CC4)cc3)n2)ccc1F` showed a melting point of 93 to 103 °C.

As to `C[C@@H](CO)CCn1c(C(=O)NCc2cc(C(F)(F)F)cc(C(F)(F)F)c2)c(-c2ccc(Cl)cc2)c2cccnc2c1=O`, the melting point was in the range of 259 to 261 °C. The compound `COc1cc(C=O)c2c(c1OC)OCC=C2` registered a melting point of 82 to 82.5 °C. As for `NC(=O)CCCC1(c2ccccc2)CC(O)=C(SCc2ccccc2)C(=O)O1` (stereo not given), the figure is 47.5 to 53 °C; as for `CC(NC(=O)C1CCCN1C(=O)CNP(=O)(Cc1ccccc1)Cc1ccccc1)C(=O)OCc1ccccc1` (stereo not given), 77 to 80 °C.

`COc1ccc(NS(=O)(=O)c2ccc(N3CCC(NC[C@H](O)COc4ccc(OCc5ccccc5)cc4)CC3)cc2)cc1OC` came in with a melting point of 113 to 121 °C. The compound `CCOC(=O)C1=C(Cl)/C(=N/OS(C)(=O)=O)CC(c2ccc(Cl)c(OC)c2F)N1` (stereo not given) yielded a melting point of 60 to 62 °C. On to `CNC(=O)N(C)C1=NN(C(C)=O)C(C)(C)S1`, for which the melting point lay within 151 to 154 °C. As for `Nc1ccc(S(=O)(=O)Nc2cccc(OP(N)(N)=O)c2)cc1`, the figure is 185 to 186 °C; as for `CC(C)c1cc(C(C)(C)C)cc(-c2ccc(F)cc2)c1O`, 109 to 111 °C. For `CCCc1c(OCC(O)CS(=O)(=O)c2ccc(C(=O)CCC(=O)O)cc2F)ccc(C(C)=O)c1O` (stereo not given), the melting point lay within 96 to 99 °C. `CCOC(=O)c1ccc(F)c([N+](=O)[O-])c1` gave a melting point of 50 °C.

`CCCc1nn2ncc(C(=O)OCC)c2n1Cc1ccc(-c2ccccc2-c2nc(=O)o[nH]2)cc1`: the melting point fell in the range of 227 to 228 °C. As for `COc1cc(C(S)CS)cc(OC)c1OC` (stereo not given), the figure is 72.5 to 73.5 °C; as for `CSc1ccc2c(=O)cc(C(=O)N[C@H]3CCN(C(=O)c4cc(C(F)(F)F)cc(C(F)(F)F)c4)[C@H](Cc4ccc(Cl)cc4)C3)oc2c1`, 137 to 140 °C; as for `CCN(CC)c1ccc(N(c2ccc(N(C)C)cc2)C2(c3ccc(N(C)C)cc3Cl)OC(=O)c3ccccc32)cc1` (stereo not given), 67 to 84 °C. The compound `Fc1ccc2c(c1)C(=C1CCNCC1)c1ccccc1C=C2` returned a melting point of 161 °C.

For `Cc1ccc(S(=O)(=O)OCC2CCc3ccc4[nH]c(C(F)(F)F)nc4c3O2)cc1` (stereo not given), the melting point was determined as 160 °C. Turning to `CCCOc1nsc(N=CN(C)C)c1C#N`, the melting point was in the range of 117 to 118 °C. Regarding `O=[N+]([O-])c1cnc2cc(Cl)ccc2c1O`, the melting point was more than 300 °C. As for `CCCOC(=O)c1cc(=O)c2c(OCc3ccc(OCc4ccc5ccccc5n4)cc3)c(Cl)ccc2o1`, the figure is 173 to 174 °C; as for `COc1ccc(C(=O)C2=C(O)C(=O)N(c3nnc(C)s3)C2c2ccc(C#N)cc2)cc1` (stereo not given), 185 °C. Regarding `CC(C)(C)c1cc(OCCCc2nnn[nH]2)cc(C(C)(C)C)c1O`, the melting point is 179 to 180 °C. Regarding `Cc1ccccc1-c1ccc2c(c1)c(C(=O)C(=O)O)cn2Cc1ccc(C(C)(C)C)cc1`, the melting point was in the range of 97 to 98 °C.

The compound `CC(C)(C)N(CC(=O)Nc1n[nH]c(=S)s1)C(=O)C(Cc1ccc(OCc2ccccc2)cc1)NC(=O)OCc1ccccc1` (stereo not given) displayed a melting point of 146 °C.

`Cc1nc2c3c(ccc2n1C)C(=O)C(OC(=O)C(C)(C)C)C(c1ccccc1)O3` (stereo not given): the melting point was 255 °C.

`O=C(O)c1cccc(NC(=O)C(CS)Cc2cccnc2)c1` (stereo not given): the melting point fell in the range of 94 to 97 °C. As for `CN(C)Cc1coc(-c2cccc(C3=Nc4ccc(-n5cccc5)cc4NC(=O)C3)c2)n1`, the melting point was 172 to 175 °C. As for `Cn1nnnc1-c1cn(C)c2cc(C#N)ccc2c1=O`, the figure is 301 to 303 °C. The result for `Cc1c2c(nn1C)c(N)nc1ccccc12` reads more than 250 °C.

`CC(C)c1[nH]n(-c2c(Cl)cc(Cl)cc2Cl)c2nc(Cc3ccc(N(C(=O)OC(C)(C)C)C(=O)[C@@H]4CCCN4)cc3)nc(=O)c1-2` returned a melting point of 225 to 226 °C.

`O=C1CCCc2ccc(-c3ccccc3)cc21` displayed a melting point of 67 °C. The result for `CC(=O)c1c(C)nc(C)nc1NCc1ccc(-c2ccccc2-c2nnnn2C(C)(C)C)cc1` reads 131 to 132 °C; that for `N#Cc1ccc(-c2cccc3cncn23)cc1`, 117 to 118 °C; that for `CON=C(c1cc(C)on1)c1ccccc1COc1ncc(Cl)cc1C(F)(F)F`, 120 to 121 °C. `COCCNc1ccnc2c(NC(=O)c3c(Cl)cccc3Cl)cccc12`: the melting point was 166 °C. The result for `COC(=O)/C=C/c1ccc(-c2nc(NC(C)=O)sc2Cc2ccc(S(C)(=O)=O)cc2)cc1` reads 217 to 218 °C; that for `CC(C)c1cccc(COCCO)c1NC(=O)CC1c2ccccc2Oc2ccccc21`, 153 to 154 °C; that for `N#Cc1cccc(C(=O)N2CCN(c3ccc(NC(=O)c4ccccc4-c4ccc(C(F)(F)F)cc4)cc3)CC2)c1`, 178 to 180 °C.

For the compound `Cc1ccc2c(c1)C(CCCCN1CCN(c3cccc(Cl)c3)CC1)C(=O)N2` (stereo not given), the melting point was 122 to 124 °C.

Turning to `C=C(c1ccc(-c2nnc(N)s2)cc1)C(O)(Cn1cncn1)c1ccc(F)cc1F` (stereo not given), the melting point was in the range of 118 to 121 °C.

`CCOc1ccc(Nc2nnc(Cc3ccncc3)c3ccccc23)cc1` yielded a melting point of 223 to 224 °C. `O=c1[nH]c2c(I)c([N+](=O)[O-])c(Cl)c([N+](=O)[O-])c2[nH]c1=O`: the melting point lay within 240 to 242 °C. The result for `CC(C)(C)c1ccc2oc(C(=O)COc3ccc(C(=O)O)cc3)cc2c1` reads 210 to 211 °C; that for `C=CCN1C(=O)C(C)N(c2ccc(Cc3ccccc3)cc2)C1=S` (stereo not given), 62 to 64 °C.

Consider `ClCCCOc1ccc(-c2cnc(CSCCOc3ccccc3)o2)cc1`, for which the melting point lay within 71 to 73 °C.

`NNC(=O)Nc1cccc2c1C(=O)c1c-2n[nH]c1-c1ccc(N2CCNCC2)cc1` registered a melting point of 257 °C. For the compound `Cc1ccc(C(=O)OCn2ncc(=O)[nH]c2=O)cc1`, the melting point amounted to 139 °C.

The compound `Cc1cccc(C)c1NC(C)(C)C(=O)O` gave a melting point of 148 °C. As for `O=Cc1cc(-c2ccccc2)nn1Cc1ccc(Cl)cc1Cl`, the figure is 135 to 137 °C; as for `COC(=O)C(Oc1cccc2ccccc12)c1ccc(Oc2ccc(Cl)cc2)cc1` (stereo not given), 107 to 110 °C; as for `CS(=O)(=O)c1ccc(-c2cnn(-c3ccc(F)cc3)c(=O)c2COc2ccc(F)cc2)cc1`, 65 to 80 °C.

Compound `C(=C(c1ccccc1)c1ccccc1)c1ccccn1` displayed a melting point of 117 to 119 °C. `Cn1cc(C(=O)NCc2ccc(Cl)cc2)c(=O)c2cc(CN3CCOCC3)cc(C#Cc3ccncc3)c21` registered a melting point of 200 to 202 °C. Take `O=C(O)c1cnc2oc(C(=O)O)cc2c1`: the melting point was more than 315 °C. `FC(F)(F)Sc1ccc(C=Cc2nc(CNc3ccc(CCCCn4ccnn4)cc3)co2)cc1` displayed a melting point of 76 to 78 °C. As for `COc1cc(C2NC(C(=O)O)CS2)ccc1OCC(=O)NCCO[N+](=O)[O-]` (stereo not given), the figure is 151 to 152 °C; as for `CN(C)Cc1c(Cl)nc(-c2ccccc2)c2ccccc12`, 75 to 77 °C. As for `CCNC(=C[N+](=O)[O-])NCCSCc1[nH]cnc1C`, the figure is 171 to 172 °C.

Turning to `O=C(O)c1c(-c2cccc3ccccc23)c2ccccc2n1Cc1cc2c(cc1Cl)OCO2`, the melting point is 241 to 242 °C. As for `OCC(=C(c1ccc(F)cc1)c1ccc(F)cc1)c1nnn(C(c2ccccc2)(c2ccccc2)c2ccccc2)n1`, the melting point lay within 176 to 178 °C. The result for `Cc1cc(Oc2ccc(NC(=O)c3ccccc3C(c3ccc(O)cc3)c3ccc(O)cc3)cn2)cc(C)c1Cl` reads 125 °C. The compound `COC(=O)c1ccc(CCCCc2c(C)cc(C)cc2C)cc1` displayed a melting point of 52 to 53 °C. As for `CCc1ccc(-c2ccc3c(c2)C=C(C(=O)Nc2ccc(CN(C)C4CCOCC4)cc2)CCN3C)cc1`, the melting point lay in the range of 164 to 165 °C. As for `CCCCc1oc2ccccc2c1C(=O)NCc1ccc2c(Br)c(OC(Cc3ccccc3)C(=O)OC)ccc2c1` (stereo not given), the figure is 110 to 112 °C; as for `COc1cccc(N2CCCN(/C(C)=C(/C#N)C(N)=S)CC2)c1`, 129 to 131 °C.

For `COc1cccc(Cl)c1C(O)C(N)=O` (stereo not given), the melting point lay within 116 to 118 °C. Compound `O=C(NCCCC[C@H](Nc1nc2ccc(Cl)cc2cc1C(=O)O)C(=O)O)OCc1ccccc1` displayed a melting point of 152 to 154 °C.

`N=C(N)c1ccc2cc(OC(=O)[C@H]3CC[C@H](CN)CC3)ccc2c1` came in with a melting point of 147 °C. The result for `CC(C)(C)OC(=O)CN1C(=O)[C@@H](N)CSc2ccccc21` reads 86 to 89 °C.

In the case of `Cc1nc2c(cc1Cl)C(=O)N(C)CC(CCCl)O2` (stereo not given), the melting point fell in the range of 65 to 69 °C. The compound `COc1cc(OC)nc(C(C(=O)O)C(C)C)n1` (stereo not given) showed a melting point of 99 to 101 °C. With `Cc1oc(-c2ccccc2)nc1COc1ccc(COc2ccc(C(=O)c3ccccc3)c(O)c2)cc1`, the melting point was 160 to 161 °C.

For the compound `Cc1csc(Cc2ccc([N+](=O)[O-])cc2)n1`, the melting point was in the range of 81 to 82 °C.

Compound `CN1C(=O)Cc2ccccc21` yielded a melting point of 83 to 84.5 °C. `Clc1cc(Cl)c(C(Cl)Cl)nc1Cl`: the melting point was 61 to 62 °C. The result for `O=c1oc2c(c(=O)n1C1CCCCCCC1)CCC2` reads 48 to 51 °C; that for `COc1cccc(/C=C/C(=O)Nc2ccccc2C(=O)O)c1`, 183 to 184 °C.
